Reference: patent US20230002361A1, “2H-INDAZOLE DERIVATIVES AND THEIR USE IN THE TREATMENT OF DISEASE” (BIOGEN MA INC., priority 2019, published 2023)

Legend:
MDR1 (P-gp) = molecular target: T1, MDR1 (P-gp) (Homo sapiens, UniProt P08183); test: MDR1-MDCK assay (efflux ratio); format: in vitro ADME; settings: human, MDCK-MDR1, 1 μM compound, 120 minutes incubation; read-out: MDR1-MDCK Efflux Ratio; (B-A/A-B)
T1 construct: host or cells: MDCK cells
Method: • The assay makes use of human MDR1 transfected MDCK cells (NIH cell line in-licensed from Absorption Systems) • The compounds are tested at 1 μM concentration prepared in transport buffer (Hank's balanced salt solution with HEPES) • MDR1-MDCK cell are cultured for 7 days in 96 well transwell insert plates (Corning). Insert plates are washed before the assay and TEER (Trans epithelial electric resistance) is measured. • These plates are loaded with test compound solution 85 μL for A-B transport and 260 μL for B-A transport in the respective donor compartment.
Mass balance=100×((Vr×Cr^final)+(Vd×Cd^final))/(Vd×CE) • Where: • dCr/dt is the cumulative concentration in the receiver compartment versus time in μM s^−1 • Vr is the volume of the receiver compartment in cm^3 • Vd is the volume of the donor compartment in cm^3 • A is the area of the insert (0.143 cm^2 for 96-well insert) • CE is the estimated experimental concentration (Time=0) of the dosing solution • Cr^final is the concentration of the receiver at the end of the incubation period • Cd^final is the concentration of the donor at the end of the incubation period.

IRAK4 = molecular target: T2, IRAK4 (Homo sapiens, UniProt Q9NWZ3); test: IRAK4 MSD Biochemical Assay (1 mM ATP, 2 h); settings: room temperature, read-out: IRAK4 MSD Biochemical Assay (1 mM ATP, 2 h) IC50
T2 construct: with 0.1 nM IRAK4, 1.6 μM of biotinylated peptide substrate and 10 μM ATP
T2 sequence (Q9NWZ3 1-460): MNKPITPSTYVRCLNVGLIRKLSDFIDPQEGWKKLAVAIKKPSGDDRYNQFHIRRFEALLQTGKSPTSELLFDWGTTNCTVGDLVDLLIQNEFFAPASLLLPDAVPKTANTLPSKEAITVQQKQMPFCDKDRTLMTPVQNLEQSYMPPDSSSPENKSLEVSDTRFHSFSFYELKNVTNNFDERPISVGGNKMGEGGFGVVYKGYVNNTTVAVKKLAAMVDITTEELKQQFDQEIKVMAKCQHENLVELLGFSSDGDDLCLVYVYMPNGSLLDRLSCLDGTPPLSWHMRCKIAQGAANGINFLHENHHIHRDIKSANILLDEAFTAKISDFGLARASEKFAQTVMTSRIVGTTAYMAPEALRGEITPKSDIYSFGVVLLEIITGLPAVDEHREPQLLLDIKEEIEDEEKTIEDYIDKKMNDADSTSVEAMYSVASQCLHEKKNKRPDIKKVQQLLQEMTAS
Method: The 2-hour 10 μM ATP Biochemical Assay employs a MesoScale Detection (MSD) format.
The activity is quenched with 11 μl of 70 mM EDTA, pH 8.
To detect the phosphorylated biotinylated peptide substrate, 30 μl of the quenched reaction mixture is added to equivalent wells of a 384 well streptavidin coated MesoScale plate (Meso Scale Discovery #L21SA-1). After a 1 hour incubation of the plate for 1 hour at room temperature with gentle mixing, the plate wells are washed 3 times with 50 mM Tris, pH 7.5, 150 mM NaCl, 0.02% Tween-20.
A 25 μl volume of 1:500 anti-P-Threonine Rabbit polyclonal Antibody plus 1:500 Goat-anti-Rabbit Sulfo Tag Antibody (Meso Scale Discovery R32AB-1) in 50 mM Tris, pH 7.5, 150 mM NaCl, 0.02% Tween-20 plus 2% BSA is then added to each well. After a 1-hour incubation of the plate for 1 hour at room temperature with gentle mixing, the plate wells are washed, 3 times with 50 mM Tris, pH 7.5, 150 mM NaCl, 0.02% Tween-20. A 40 μl volume of 2×MSD Read Buffer (Meso Scale Discovery R92TC-1) is added to each well, and the plate is read immediately in an MSD Plate Reader (Meso Scale Discovery).
The 2-hour 1 mM ATP IRAK4 Biochemical assay was performed as described above, but with […] IRAK4 and 1 mM ATP.

T1 sequence (P08183 whole entry): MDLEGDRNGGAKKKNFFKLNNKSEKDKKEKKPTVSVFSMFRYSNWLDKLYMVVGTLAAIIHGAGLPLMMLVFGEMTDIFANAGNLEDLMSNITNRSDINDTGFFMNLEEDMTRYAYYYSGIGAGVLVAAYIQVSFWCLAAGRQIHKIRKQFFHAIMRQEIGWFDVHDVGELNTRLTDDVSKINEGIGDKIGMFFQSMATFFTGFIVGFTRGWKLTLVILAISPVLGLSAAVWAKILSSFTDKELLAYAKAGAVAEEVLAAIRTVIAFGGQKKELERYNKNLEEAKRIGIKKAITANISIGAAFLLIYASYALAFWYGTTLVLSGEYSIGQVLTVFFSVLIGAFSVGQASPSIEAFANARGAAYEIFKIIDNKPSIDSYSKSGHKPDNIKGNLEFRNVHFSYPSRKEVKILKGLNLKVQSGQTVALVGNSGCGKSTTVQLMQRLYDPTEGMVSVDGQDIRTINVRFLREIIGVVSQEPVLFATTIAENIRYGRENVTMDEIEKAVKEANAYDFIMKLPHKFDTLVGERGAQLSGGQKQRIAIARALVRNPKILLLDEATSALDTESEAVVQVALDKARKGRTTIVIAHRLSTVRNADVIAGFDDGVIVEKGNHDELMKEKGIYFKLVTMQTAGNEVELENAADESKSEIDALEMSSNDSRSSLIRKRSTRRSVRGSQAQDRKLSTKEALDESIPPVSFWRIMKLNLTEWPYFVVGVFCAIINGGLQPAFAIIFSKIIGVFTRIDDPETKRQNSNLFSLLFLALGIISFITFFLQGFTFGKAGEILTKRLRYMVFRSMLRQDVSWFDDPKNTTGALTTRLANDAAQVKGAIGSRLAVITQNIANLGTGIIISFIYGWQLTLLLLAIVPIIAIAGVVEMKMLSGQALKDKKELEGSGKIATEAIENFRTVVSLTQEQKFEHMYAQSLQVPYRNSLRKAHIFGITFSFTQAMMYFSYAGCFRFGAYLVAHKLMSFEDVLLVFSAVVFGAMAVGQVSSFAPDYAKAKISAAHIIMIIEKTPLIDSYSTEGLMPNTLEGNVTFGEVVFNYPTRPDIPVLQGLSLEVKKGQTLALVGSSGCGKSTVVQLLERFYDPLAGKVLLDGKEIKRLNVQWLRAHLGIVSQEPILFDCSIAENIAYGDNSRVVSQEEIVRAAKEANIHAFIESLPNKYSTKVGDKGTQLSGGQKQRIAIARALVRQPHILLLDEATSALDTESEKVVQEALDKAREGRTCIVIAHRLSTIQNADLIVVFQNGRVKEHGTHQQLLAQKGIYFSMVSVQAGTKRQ

`CC(C)Oc1cc2nn(CC34COC(C)(C3)C4)cc2cc1C(=O)Nc1cccc(C(F)F)n1.Cl` [Example 27, N-(6-(difluoromethyl)pyridin-2-yl)-6-isopropoxy-2-((1-methyl-2-oxabicyclo[2.1.1]hexan-4-yl)methyl)-2H-indazole-5-carboxamide hydrochloride] showed an efflux ratio at 120 min, 1 μM (MDR1 (P-gp)) of 1.3 and an IC50 (IRAK4) of 5.4 nM.

`COCCn1cc2cc(C(=O)Nc3cccc(C(F)F)n3)c(OC(C)C)cc2n1.Cl` [Example 28, N-(6-(difluoromethyl)pyridin-2-yl)-6-isopropoxy-2-(2-methoxyethyl)-2H-indazole-5-carboxamide hydrochloride] gave an efflux ratio at 120 min, 1 μM (MDR1 (P-gp)) of 0.4 and an IC50 (IRAK4) of 4.4 nM.

Compound `COC(C)(C)CCn1cc2cc(C(=O)Nc3cccc(C(F)F)n3)c(OC(C)C)cc2n1.Cl` [Example 29, N-(6-(difluoromethyl)pyridin-2-yl)-6-isopropoxy-2-(3-methoxy-3-methylbutyl)-2H-indazole-5-carboxamide hydrochloride] has an efflux ratio at 120 min, 1 μM (MDR1 (P-gp)) of 0.8 and an IC50 (IRAK4) of 0.6 nM.

`CC(C)Oc1cc2nn(C3COC3)cc2cc1C(=O)Nc1cccc(C(F)F)n1` [Example 30, N-(6-(difluoromethyl)pyridin-2-yl)-6-isopropoxy-2-(oxetan-3-yl)-2H-indazole-5-carboxamide] showed an efflux ratio at 120 min, 1 μM (MDR1 (P-gp)) of 0.6 and an IC50 (IRAK4) of 6.2 nM.

For `CCOc1cc2nn(CCC(C)(C)O)cc2cc1C(=O)Nc1cccc(C(F)F)n1` [Example 31, N-(6-(difluoromethyl)pyridin-2-yl)-6-ethoxy-2-(3-hydroxy-3-methylbutyl)-2H-indazole-5-carboxamide], the efflux ratio at 120 min, 1 μM (MDR1 (P-gp)) was 1.9 and the IC50 (IRAK4) was 0.7 nM.

`CC(C)Oc1nc2nn(CCC(C)(C)O)cc2cc1C(=O)Nc1cccc(C(F)F)n1` [Example 32, N-(6-(difluoromethyl)pyridin-2-yl)-2-(3-hydroxy-3-methylbutyl)-6-isopropoxy-2H-pyrazolo[3,4-b]pyridine-5-carboxamide] was tested, and the efflux ratio at 120 min, 1 μM (MDR1 (P-gp)) was 3.4 and the IC50 (IRAK4) was 0.4 nM.

In the case of `CC(C)Oc1cc2nn(CCC(C)(C)O)cc2cc1C(=O)Nc1ccn(C(F)F)n1` [Example 33, N-(1-(difluoromethyl)-1H-pyrazol-3-yl)-2-(3-hydroxy-3-methylbutyl)-6-isopropoxy-2H-indazole-5-carboxamide], the efflux ratio at 120 min, 1 μM (MDR1 (P-gp)) is reported as 8.6 and the IC50 (IRAK4) is reported as 4.3 nM.

With `CC(C)Oc1cc2nn(CCC(C)(C)O)cc2cc1C(=O)Nc1cnn2cccnc12` [Example 34, 2-(3-Hydroxy-3-methylbutyl)-6-isopropoxy-N-(pyrazolo[1,5-a]pyrimidin-3-yl)-2H-indazole-5-carboxamide] the efflux ratio at 120 min, 1 μM (MDR1 (P-gp)) was 14.2 and the IC50 (IRAK4) was 1 nM.

With `COCCCn1cc2cc(C(=O)Nc3cnn4cccnc34)c(OC(C)C)cc2n1` [Example 35, 6-Isopropoxy-2-(3-methoxypropyl)-N-(pyrazolo[1,5-a]pyrimidin-3-yl)-2H-indazole-5-carboxamide] the efflux ratio at 120 min, 1 μM (MDR1 (P-gp)) was 1.1 and the IC50 (IRAK4) was 5 nM.

`CC(C)Oc1nc2nn(C3CCCOC3)cc2cc1C(=O)Nc1cnn2cccnc12` (centres unmarked) [Example 36, 6-Isopropoxy-N-(pyrazolo[1,5-a]pyrimidin-3-yl)-2-(tetrahydro-2H-pyran-3-yl)-2H-pyrazolo[3,4-b]pyridine-5-carboxamide] was tested, and the efflux ratio at 120 min, 1 μM (MDR1 (P-gp)) was 2.2 and the IC50 (IRAK4) was 0.5 nM.

For `CC(C)Oc1nc2nn(C3CCOC3)cc2cc1C(=O)Nc1cnn2cccnc12` (centres unmarked) [Example 37, 6-Isopropoxy-N-(pyrazolo[1,5-a]pyrimidin-3-yl)-2-(tetrahydrofuran-3-yl)-2H-pyrazolo[3,4-b]pyridine-5-carboxamide], the efflux ratio at 120 min, 1 μM (MDR1 (P-gp)) was 2.2 and the IC50 (IRAK4) was 6.4 nM.

For `CC(C)Oc1cc2nn(C3COC3)cc2cc1C(=O)Nc1cnn2cccnc12` [Example 38, 6-Isopropoxy-2-(oxetan-3-yl)-N-(pyrazolo[1,5-a]pyrimidin-3-yl)-2H-indazole-5-carboxamide], the efflux ratio at 120 min, 1 μM (MDR1 (P-gp)) was 2.3 and the IC50 (IRAK4) was 11.2 nM.

For `CC(C)Oc1cc2nn(CC3CCOC3)cc2cc1C(=O)Nc1cnn2cccnc12` (centres unmarked) [Example 39, 6-Isopropoxy-N-(pyrazolo[1,5-a]pyrimidin-3-yl)-2-((tetrahydrofuran-3-yl)methyl)-2H-indazole-5-carboxamide], the efflux ratio at 120 min, 1 μM (MDR1 (P-gp)) was 3.1 and the IC50 (IRAK4) was 1.8 nM.
